This test addresses T1, murine TLR4, MD2, and CD14 (Mus musculus, UniProt Q9JHF9+Q9QUK6).
T1 construct: host or cells: HEK 293T
T1 sequence (Q9QUK6 26-835): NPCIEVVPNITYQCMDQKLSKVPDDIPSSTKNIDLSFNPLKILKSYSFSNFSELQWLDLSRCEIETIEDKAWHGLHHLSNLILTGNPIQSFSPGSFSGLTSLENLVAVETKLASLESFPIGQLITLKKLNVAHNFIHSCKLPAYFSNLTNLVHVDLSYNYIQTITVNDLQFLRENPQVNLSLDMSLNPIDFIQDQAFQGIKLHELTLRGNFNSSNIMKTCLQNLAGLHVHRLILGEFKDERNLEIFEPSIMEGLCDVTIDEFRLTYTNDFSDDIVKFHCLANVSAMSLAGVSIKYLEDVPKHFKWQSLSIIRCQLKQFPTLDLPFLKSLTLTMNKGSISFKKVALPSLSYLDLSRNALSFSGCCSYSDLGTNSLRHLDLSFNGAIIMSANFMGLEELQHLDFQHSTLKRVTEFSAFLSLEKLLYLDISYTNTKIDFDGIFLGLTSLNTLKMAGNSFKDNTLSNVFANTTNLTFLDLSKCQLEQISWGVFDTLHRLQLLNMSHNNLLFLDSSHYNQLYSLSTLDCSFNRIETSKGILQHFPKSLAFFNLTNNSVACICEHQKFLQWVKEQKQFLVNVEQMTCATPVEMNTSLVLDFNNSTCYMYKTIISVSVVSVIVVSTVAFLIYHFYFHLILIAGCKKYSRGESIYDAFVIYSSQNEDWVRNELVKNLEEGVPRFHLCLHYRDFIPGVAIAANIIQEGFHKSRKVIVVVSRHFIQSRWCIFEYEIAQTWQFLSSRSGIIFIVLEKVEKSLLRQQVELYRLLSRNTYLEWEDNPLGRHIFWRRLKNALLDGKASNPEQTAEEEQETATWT
T1 sequence (Q9JHF9 19-160): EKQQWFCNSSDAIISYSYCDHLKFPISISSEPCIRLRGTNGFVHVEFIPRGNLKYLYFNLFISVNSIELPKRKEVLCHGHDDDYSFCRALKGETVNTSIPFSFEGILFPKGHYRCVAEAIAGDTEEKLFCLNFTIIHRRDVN
Description: NF-κB activation (luciferase reporter) in HEK 293T cells stably transfected with murine TLR4/MD2/CD14. The test is classed as cell-based. The conditions noted are these: for EC50: 4 h exposure, dual-luciferase, best-fit value. The method, then: Induction of NF-κB activation was determined in triplicate cultures of HEK 293T cells stably transfected with murine TLR4, MD2, and CD14 and transiently transfected with pELAM-Luc, pRL-TK, and pcDNA3 plasmids. Forty-four hours post-transfection, cells were treated with E. coli LPS or lipid A derivatives 1-5 at the indicated concentrations or were left untreated (control). Forty-eight hours post-transfection, NF-κB activation was determined by firefly luciferase activity relative to Renilla luciferase activity. In the transfection experiment shown, human TNF-α (10 ng/mL) induced 12.1±0.3-fold activation of NF-κB.
To obtain further support that the EC50 values of secreted TNF-α protein are not affected by transcriptional, translational, or protein processing processes, dose response curves for the activation of the transcription factor NF-κB were determined for each compound and the results compared with similar data for secretion of TNF-α protein. Thus, compounds 1-5, and E. coli LPS were exposed at a range of concentrations to HEK 293T cells stably transfected with […] TLR4/MD2/CD14 and transiently transfected with a plasmid containing the reporter gene pELAM-Luc (NF-κB dependent firefly luciferase reporter vector) and a plasmid containing the control gene pRL-TK (Renilla luciferase control reporter vector). As a negative control, wild type HEK 293T cells transiently transfected with plasmids containing the reporter gene pELAM-Luc and control gene pRL-TK were used. After an incubation time of 4 h, the activity was measured using a commercial dual-luciferase assay.
The day before transfection, HEK 293T wild type cells and HEK 293T cells stably transfected with murine TLR4/MD2/CD14 were plated in 96-well tissue culture plates (16,000 cells/well). The next day, cells were transiently transfected using PolyFect Transfection Reagent (Qiagen) with expression plasmids pELAM-Luc (NF-κB-dependent firefly luciferase reporter plasmid, 50 ng/well) (Chow et al., J. Biol. Chem. 1999, 274, 10689-10692) and pRL-TK (Renilla luciferase control reporter vector, 1 ng/well; Promega) as an internal control to normalize experimental variations. The empty vector pcDNA3 (Invitrogen) was used as a control and to normalize the DNA concentration for all of the transfection reactions (total DNA 70 ng/well). […] The luciferase activity was measured using the Dual-Luciferase Reporter Assay System (Promega) according to the manufacturer's instructions and the Fluoroskan Accent FL combination luminometer/fluorometer (Thermo Electron Corporation). […]
Concentration-response data were analyzed using nonlinear least-squares curve fitting in Prism (GraphPad Software, Inc.). […]
On the technique in general: A reporter such as luciferase makes a cellular process visible.

Take `CCCCCCCCCCCCCCCC(=O)O[C@H](CCCCCCCCCCCC(C)C)CC(=O)N[C@H]1[C@H](OC[C@H]2O[C@H](OP(=O)(O)O)[C@H](NC(=O)C[C@H](O)CCCCCCCCCCCC(C)C)[C@@H](O)[C@@H]2O)O[C@H](CO)[C@@H](O)[C@@H]1ONC(=O)C[C@H](O)CCCCCCCCCC(C)C` [Compound 104, 6-O-{2-Deoxy-2-[(R)-3-hexadecanoyloxy-15-methyl-hexadecanoylamino]-3-O—[(R)-3-hydroxy-13-methyl-tetradecanoylamino]-β-D-glucopyranosyl}-2-deoxy-2-[(R)-3-hydroxy-15-methyl-hexadecanoylamino]-α-D-glucopyranose 1-phosphate]: for the setting “Example III, 104 at 0.1, 1 and 10 μg mL−1, E. coli LPS 10 ng mL−1, 4 h”, the “NF-κB activation, mouse TLR4/MD2/CD14” value is given as “at high concentrations, compound 104 could induce NF-κB activation”. The EC50 is the concentration at which the effect is half-maximal. In the case of `CCCCCCCCCCCCCC(=O)OC(CCCCCCCCCCC)CC(=O)OC1C(NC(=O)CC(CCCCCCCCCCC)OC(=O)CCCCCCCCCCC)C(OCC2OC(OP(=O)(O)O)C(NC(=O)CC(O)CCCCCCCCCCC)C(OC(=O)CC(O)CCCCCCCCCCC)C2O)OC(CO)C1OP(=O)(O)O` [Lipid A 1, 6-O-{2-Deoxy-2-[(R)-3-dodecanoyloxy-tetradecanoylamino]-3-O—[(R)-3-tetradecanoyloxy-tetradecanoyl]-β-D-glucopyranosyl}-2-deoxy-3-O—[(R)-3-hydroxy-tetradecanoyl]-2-[(R)-3-hydroxy-tetradecanoylamino]-α-D-glucopyranose 1,4′-bisphosphate], the 50% effective concentration (EC50) turned out to be 0.038 µM. As for `CCCCCCCCCCCC(=O)OC(CCCCCCCCCCC)CC(=O)NC1C(OCC2OC(OP(=O)(O)O)C(NC(=O)CC(O)CCCCCCCCCCC)C(OC(=O)CC(O)CCCCCCCCC)C2O)OC(CO)C(OP(=O)(O)O)C1OC(=O)CC(CCCCCCCCC)OC(=O)CCCCCCCCCCC` [Lipid A 2, 6-O-{2-Deoxy-3-O—[(R)-3-dodecanoyloxy-dodecanoyl]-2-[(R)-3-dodecanoyloxy-tetradecanoylamino]-β-D-glucopyranosyl}-2-deoxy-3-O—[(R)-3-hydroxy-dodecanoyl]-2-[(R)-3-hydroxy-tetredecanoylamino]-α-D-glucopyranose 1,4′-bisphosphate], the EC50 came to 0.014 µM.

On to `CCCCCCCCCCCCCCCC(=O)OC(CCCCCCCCCCC)CC(=O)NC1C(OP(=O)(O)O)OC(COC2OC(CO)C(OP(=O)(O)O)C(OC(=O)CC(CCCCCCCCC)OC(=O)CCCCCCCCCCC)C2NC(=O)CC(CCCCCCCCCCC)OC(=O)CCCCCCCCCCC)C(O)C1OC(=O)CC(O)CCCCCCCCC` [Lipid A 4, 6-O-{2-Deoxy-3-O—[(R)-3-dodecanoyloxy-dodecanoyl]-2-[(R)-3-dodecanoyloxy-tetradecanoylamino]-β-D-glucopyranosyl}-2-deoxy-2-[(R)-3-hexadecanoyloxy-tetredecanoylamino]-3-O—[(R)-3-hydroxy-dodecanoyl]-α-D-glucopyranose 1,4′-bisphosphate], for which the half-maximal effective concentration (EC50) was found to be 0.053 µM.

The record behind these values is US9309276B2, “Synthetic lipid A derivative” (University of Georgia Research Foundation, Inc., priority 2007, dated 2016).
